{
  "source": "patent US8999419B2",
  "about": "“Enhancement of potato tuber sprouting inhibitors using various combinations of agents” (Washington State University, priority 2010, dated 2015)",
  "key": {"[1]": {"system": "'Ranger Russet' tubers", "assay": "Days to average sprout length of 10 mm, 3-decen-2-one followed by CIPC", "format": "in vivo, potato", "method": "The study used CIPC to extend the sprout-free period following an application of 3-decen-2-one or 2-decanone after sprouting occurs. Protocol.\n(§1) This study, as described, used 3-decen-2-one (3D2). The study was duplicated as described with 2-decanone in place of 3D2. Tubers were stored at 9° C. until they emerged from dormancy (when 75% of the sample tubers are peeping, and the longest sprouts are no longer than 4 mm). At this time, 3-decen-2-one was applied at 0.75, 0.50, or 0.25 mmol/kg to ‘burn off’ growing sprouts. Each of these treatments was followed by applications of 1, 0.73, 0.47 or 0.20% a.i. of CIPC EC. The label rate of CIPC EC is 1% a.i. and results in a 10 mg/kg fresh wt application when applied as directed. Sprout measurements were obtained every two weeks. The length of the longest sprout on each tuber was recorded. The average length of the longest sprout was plotted over time for each treatment combination. The days to 10 mm were estimated from the second linear regression line of each element. Positive control treatments included the three rates of 3D2 alone and four post-sprouting concentrations of CIPC alone. The standard control treatment consisted of non-treated tubers."}, "[2]": {"system": "Russet Burbank potato tubers", "assay": "Sprout-free interval after CIPC and trans-2-nonenal, alone or in sequence", "format": "in vivo", "conditions": "CIPC 20 mg/kg; T2N 0.75 mmol/kg; applied at 151 DAH; tubers stored at 9° C.", "method": "FIGS. 2A and B. Treatment with combination of T2N and CIPC. A, sprout growth in “Russet Burbank” tubers treated as indicated with CIPC, trans-2-nonenal, or trans-2-nonenal and CIPC in sequence; fresh weight of sprouts (g/tuber) at the indicated time points. CIPC, 20 mg/kg; T2N, 0.75 mmol/kg; B, photo of tubers.\nFollowing the emergence of Russet Burbank potato tubers from dormancy, CIPC and trans-2-nonenal were applied either alone or sequentially as indicated in FIG. 2A. All treatments were applied at 151 days after harvest (DAH). Sprout control was considered to end when one third of the tubers in the sample produced a sprout mass of greater than 50 mg/tuber or when the mean of the total sample exceeded 1 g/tuber. When both CIPC and trans-2-nonenal were used, the sprout-free interval of the tubers stored at 9° C. […] In this study, the application of CIPC was unconventional in that it occurred when tubers were beginning to sprout, as opposed to the window between wound healing and sprouting. CIPC provided additional sprout control on tubers whose actively growing sprouts were initially terminated by trans-2-nonenal, i.e. when used in combination with trans-2-nonenal. Trans-2-nonenal thus expands the window of opportunity for application of CIPC and this invention can therefore be useful to reduce the application rate and residues of CIPC."}, "[3]": {"system": "'Ranger Russet' tubers", "assay": "Days to average sprout length of 10 mm, 2-decanone followed by CIPC", "format": "in vivo, potato", "method": "as §1"}, "[4]": {"system": "Russet Burbank tubers", "assay": "Sprout fresh weight after 24 h chamber treatment with 3N2 and 2-nonanone mixtures", "format": "in vivo, potato", "conditions": "treated 24 h, 21 days at 22° C.", "method": "FIG. 1. Effects of 3-nonen-2-one (3N2) in various combinations with 2-nonanone on sprouting of Russet Burbank tubers. The compounds were applied as described in Example 1. Tubers were treated for 24 h, removed from treatment chambers, and placed at 22° C. to sprout for 3 weeks. Sprout fresh weight is expressed as a percentage of control (non-treated), which were 100% sprouted.\nThe objective of this study was to determine the efficacy of mixtures of 3N2 and its metabolite, 2-nonanone, on sprout inhibition. Potato tubers were treated for 24 h in a closed chamber. The chemicals were volatilized from filter paper inside the chamber. Treatment was with 0 to 0.75 mmol/kg of 3N2 combined factorially with 0 to 0.75 mmol/kg of 2-nonanone. The treated tubers were placed at 22° C. and sprout fresh weights were measured 21 days after treatment. Sprout growth from tubers treated with 0.5 and 0.75 mmol/kg 2-nonanone averaged 58% of non-treated tubers, compared with 9% for […] applied alone (FIG. 1)."}, "[5]": {"conditions": "116 mg kg-1 rate, no subsequent treatment with CIPC"}},
  "data": [
    {"compound": "CC(C)OC(=O)Nc1cccc(Cl)c1", "note": "[CIPC, chlorpropham, reference compound]", "values": [
      {"measurement": "Days to 10 mm Actual", "setting": "[1]; CIPC 2.0 mg kg-1 fresh wt alone (3D2 0), Table 1 study", "value": 51, "unit": "days"},
      {"measurement": "Days to 10 mm Actual", "setting": "[1]; CIPC 4.7 mg kg-1 fresh wt alone (3D2 0), Table 1 study", "value": 80, "unit": "days"},
      {"measurement": "Days to 10 mm Actual", "setting": "[1]; CIPC 7.3 mg kg-1 fresh wt alone (3D2 0), Table 1 study", "value": 99, "unit": "days"},
      {"measurement": "Days to 10 mm Actual", "setting": "[1]; CIPC 10 mg kg-1 fresh wt alone (3D2 0), Table 1 study", "value": 95, "unit": "days"},
      {"measurement": "Sprout-free interval", "setting": "[2]", "value": 124, "unit": "days"},
      {"measurement": "Days to 10 mm Actual", "setting": "[3]; CIPC 2.0 mg kg-1 fresh wt alone (2-decanone 0), Table 2 study", "value": 85, "unit": "days"},
      {"measurement": "Days to 10 mm Actual", "setting": "[3]; CIPC 4.7 mg kg-1 fresh wt alone (2-decanone 0), Table 2 study", "value": 113, "unit": "days"},
      {"measurement": "Days to 10 mm Actual", "setting": "[3]; CIPC 7.3 mg kg-1 fresh wt alone (2-decanone 0), Table 2 study", "value": 110, "unit": "days"},
      {"measurement": "Days to 10 mm Actual", "setting": "[3]; CIPC 10 mg kg-1 fresh wt alone (2-decanone 0), Table 2 study", "value": 112, "unit": "days"}
    ]},
    {"compound": "CCCCCC/C=C/C=O", "note": "[trans-2-nonenal]", "values": [
      {"measurement": "Sprout-free interval", "setting": "[2]", "value": 155, "unit": "days"}
    ]},
    {"compound": "CCCCCCCC(C)=O", "note": "[2-nonanone]", "values": [
      {"measurement": "Sprout growth (fresh weight) as percentage of non-treated tubers", "setting": "[4]; 0.5 and 0.75 mmol/kg 2-nonanone, averaged", "value": 58, "unit": "%"}
    ]},
    {"compound": "CCCCCC=CC(C)=O", "note": "[3N2, 3-nonen-2-one]", "values": [
      {"measurement": "Sprout growth (fresh weight) as percentage of non-treated tubers", "setting": "[4]; 0.75% 3N2 applied alone", "value": 9, "unit": "%"}
    ]},
    {"compound": "CCCCCCCCC(C)=O", "note": "[2-decanone]", "values": [
      {"measurement": "Control before sprouting re-occurred", "setting": "[3]; 0.25 mmol/kg rate", "value": "approximately 1 month"},
      {"measurement": "Days of control following application", "setting": "[3]; [5]", "value": 50, "unit": "days"},
      {"measurement": "Days to 10 mm Actual", "setting": "[3]; 2-decanone 39 mg kg-1 fresh wt alone (CIPC 0)", "value": 34, "unit": "days"},
      {"measurement": "Days to 10 mm Actual", "setting": "[3]; 2-decanone 77 mg kg-1 fresh wt alone (CIPC 0)", "value": 42, "unit": "days"},
      {"measurement": "Days to 10 mm Actual", "setting": "[3]; 2-decanone 116 mg kg-1 fresh wt alone (CIPC 0)", "value": 49, "unit": "days"}
    ]},
    {"compound": "CCCCCCC=CC(C)=O", "note": "[3D2, 3-decen-2-one]", "values": [
      {"measurement": "Control before sprouting re-occurred", "setting": "[1]; 0.25 mmol/kg rate", "value": "approximately 1 month"},
      {"measurement": "Days of control following application", "setting": "[1]; [5]", "value": 58, "unit": "days"},
      {"measurement": "Days to 10 mm Actual", "setting": "[1]; 3D2 39 mg kg-1 fresh wt alone (CIPC 0)", "value": 38, "unit": "days"},
      {"measurement": "Days to 10 mm Actual", "setting": "[1]; 3D2 77 mg kg-1 fresh wt alone (CIPC 0)", "value": 40, "unit": "days"},
      {"measurement": "Days to 10 mm Actual", "setting": "[1]; 3D2 116 mg kg-1 fresh wt alone (CIPC 0)", "value": 57, "unit": "days"}
    ]}
  ]
}
